Data published in publication PMC10299677, “Fluorinated Benzofuran and Dihydrobenzofuran as Anti-Inflammatory and Potential Anticancer Agents” (International Journal of Molecular Sciences, 2023).

Assays:
[1] = test system: IL-6 mRNA; assay: LPS-dependent IL-6 mRNA in THP-1-derived macrophages (RT-PCR); format: cell-based, human; settings: 50 µM, 10 ng/ml LPS 6 h
Description: F i g u re S3: Eff ect of benzofuran compounds on the lev els of LP S -dependent mRNA of CCL2 and IL-6 in THP-1 –deriv ed macrophages. Human-monoc yti c cell l ine-THP-1 wer e treat ed with PMA (25 nM for 48 hours) th en in cub ated with 50 μM compounds for 30 minutes b efo re the addit ion of 10 ng/ml LP S fo r 6 hours. Gene ex pression of IL6 and CCL2 were measur ed by RT-PCR and the v alu es wer e nor mal ized to GAPDH. Results represent means ± SEM by one way ANOVA followed by Dunnett test.

[2] = test system: COX-2 protein expression; assay: COX-2 protein expression in LPS-treated macrophages (Western blot); format: cell-based, C57BL/6J mice; settings: 10 µM for compounds 1, 7, 9, 50 µM for others, LPS 24 h
Description: Figure 4 Effects of the fluorinated benzofuran and dihydrobenzofuran on COX-2 and NOS2 protein expressions. COX-2 and NOS2 protein expressions were assessed in macrophages incubated with only 10 µM for compounds 1, 7, and 9, and 50 µM for the other compounds, for 30 min prior to the addition of 10 ng/mL LPS for 24 h. β-actin was used as a loading control, and densitometric analysis was performed using ImageJ software (NIH, MA). Data are expressed as fold of LPS-treated macrophages and represented as mean ± SEM of 4 different experiments; * p < 0.05 versus LPS (one-way ANOVA followed by Dunnett’s test).
Macrophages were incubated with the compounds for 30 min prior to the addition of 10 ng/mL LPS for 24 h. Protein levels for COX-2 and NOS2 were detected in LPS-stimulated macrophages. As previously described, 10 µg of total protein was assessed. The primary antibodies were developed and characterized as previously described: for COX-2, mouse monoclonal antibody anti-COX-2 (clone COX-214, 1/5000); for NOS2, rabbit polyclonal antibody anti-NOS2 (dilution1/2000 [33]). Antibodies anti-phospho-NF-κB (3033S), phospho-IκBα (9246S), and total IκBα (4814S) were from Cell Signaling Technologies (Danvers, MA, USA). Total NF-κB C-20 (sc-372) was from Santa Cruz Biotechnologies (Dallas, TX, USA), and mouse β-actin (dilution 1/10,000) (Sigma-Aldrich, A5441). Clarity™ western ECL substrate (Bio-Rad Laboratories 10-5061) was used according to the manufacturer’s instructions to reveal positive bands visualized using Bio-Rad ChemiDoc. For Bcl-2 and cleaved PARP-1, HCT116 cells were plated in 6-well plates (200,000 cells per well) for 24 h, and treated with compounds 1 and 2 at 10, 25, and 50 µM for 72 h. Supernatants and cells were collected and lysed using RIPA lysis buffer containing inhibitors of protease. Western blot of Bcl-2 and cleaved PARP-1 was performed using 25 µg of total protein with a rabbit polyclonal antibody anti-Bcl-2 (1/500) (Santa Cruz Biotechnology, sc-492), rabbit polyclonal antibody anti-PARP-1 (1/1000) (Santa Cruz Biotechnology, sc-7150), and mouse anti-β-actin (dilution 1/10,000) (Sigma-Aldrich, A5441).
Densitometric analyses were performed using ImageJ software (NIH, MA, USA). The ratio of the different analyzed bands to β-actin was determined and data are represented as fold change compared to the LPS-treated cells. Percentage of viable cells for proliferation assay was determined as percentage to control (non-treated cells). For TUNEL assay, apoptotic cells were quantified, and results were expressed as percentage to positive cells (cleaved DNA) compared to control (non-treated cells). Statistical analysis was performed using one-way ANOVA, followed by Dunnett’s multiple comparisons test using GraphPad Prism software. Differences were considered significant when p < 0.05.

[3] = biological target: T1, COX-1 (Homo sapiens, UniProt P23219); assay: COX-1 activity: PGE2 from exogenous arachidonic acid in HEK-293 cells overexpressing COX-1; format: cell-based; settings: 10 µM for compounds 1, 7, 9, 50 µM for others; 10 µM arachidonic acid
T1 construct: expressed in transfected cells
T1 sequence (P23219 24-599): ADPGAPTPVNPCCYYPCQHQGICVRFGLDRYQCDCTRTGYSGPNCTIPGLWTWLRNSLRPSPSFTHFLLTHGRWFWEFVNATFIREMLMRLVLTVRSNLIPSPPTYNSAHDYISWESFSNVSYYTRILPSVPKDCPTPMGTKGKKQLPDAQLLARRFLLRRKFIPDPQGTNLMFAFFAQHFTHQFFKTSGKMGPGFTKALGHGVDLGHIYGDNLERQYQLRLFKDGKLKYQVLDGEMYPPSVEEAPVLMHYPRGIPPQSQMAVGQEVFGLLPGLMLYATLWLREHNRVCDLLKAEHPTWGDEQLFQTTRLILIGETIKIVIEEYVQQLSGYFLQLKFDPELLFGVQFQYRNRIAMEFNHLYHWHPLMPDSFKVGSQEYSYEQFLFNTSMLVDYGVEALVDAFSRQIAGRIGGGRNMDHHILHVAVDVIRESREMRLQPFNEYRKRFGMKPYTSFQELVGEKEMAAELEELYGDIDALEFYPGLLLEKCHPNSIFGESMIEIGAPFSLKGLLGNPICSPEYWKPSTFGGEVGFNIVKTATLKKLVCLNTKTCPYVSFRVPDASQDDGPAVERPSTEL
Description: Figure 3 Effects of the fluorinated benzofuran and dihydrobenzofuran on COX-1 and COX-2 activities. (A) Illustration for COX-1 activity assay. HEK-293 cells stably overexpressing COX-1 are treated with the nine derivatives of benzofuran at concentrations of only 10 µM for compounds 1, 7, and 9, and 50 µM for the other compounds, 30 min prior to the addition of 10 µM arachidonic acid (AA). […] (B) COX-1 activity. […] Levels of PGE2 were very low in the absence of arachidonic acid (0.04 ± 0.01 ng/mL) and 104.3 ± 16.7 ng/mL for 10 µM AA. (C) Illustration for COX-2 activity determination. Macrophages are treated with 10 µM of aspirin (ASA) for 30 min to block basal COX activity, washed, and treated with 10 ng/mL LPS for 24 h to induce COX-2. Cells are then washed and incubated 30 min with 50 µM of the different compounds prior to the addition of 10 µM of AA. The produced PGE2 mainly reflects COX-2 activity. (D) COX-2 activity. Percentage of LPS-treated cells was calculated, and data are represented as mean ± SEM (n = 4); * p < 0.05 versus AA for COX-1 activity, and versus LPS + ASA + AA for COX-2 activity (one-way ANOVA followed by Dunnett’s test). […] Levels of PGE2 were very low in the absence of arachidonic acid (0.06 ± 0.01 ng/mL) and 71.7 ± 5.7 ng/mL for 10 µM AA.
COX-1 and COX-2 activities were performed as described previously in human embryonic kidney cell line (HEK-293) stably overexpressing COX-1 [19] and in macrophages, respectively. […] For both COX-1 and COX-2 assays, the benzofuran compounds were then added to the cells for 30 min prior to the incubation with 10 µM arachidonic acid for another 30 min. PGE2 was then measured using an enzyme immunoassay, as described previously.
(§1) IL-6, CCL2, nitrite (for NO), and PGE2 concentrations from 3–5 independent experiments were expressed as percentage of LPS alone and as mean ± SEM. COX activity was determined as percentage of PGE2 produced from exogenous arachidonic acid. Curve fitting and calculation of IC50 values were performed using GraphPad Prism (version 9.5.1 Software, La Jolla, CA, USA).

[4] = test system: PGE2; assay: PGE2 release in LPS-treated macrophages (BMDM); format: cell-based, C57BL/6J mice; settings: 10 µM for compounds 1, 7, 9, 50 µM for others, 10 ng/mL LPS 24 h
Description: C57BL/6J (10–15 weeks old) male mice were obtained from the animal care facility at the American University of Beirut. All animal procedures were performed following the recommendations of the IACUC (Institutional Animal Care and Use Committee approval 16-09-M379). BMDMs were prepared and characterized as described previously by our group. BMDMs were isolated from C57BL/6J mice by flushing the femur and tibia with RPMI-1640 culture media (Sigma-Aldrich R7388), and cells were collected and centrifuged at 300× g for 5 min. The supernatant was discarded, and the pellet was resuspended in 2 mL red blood lysis 10% (Sigma-Aldrich R7767) medium in PBS and incubated for 5 min at room temperature. After diluting the suspension of cells with 5 mL of RPMI containing 10% FBS and 1% penicillin–streptomycin, cells were centrifuged at 300× g for 5 min, and the cell pellet was resuspended in RPMI media containing 10% FBS supplemented with 15% L929-conditioned medium containing macrophage-colony stimulating factor (M-CSF1) and plated on […]. Cells were allowed to proliferate and differentiate for 5–6 days. Cells were harvested, washed, and allowed to adhere overnight in RPMI containing 10% FBS for treatment. Cells were previously characterized by flow cytometry as macrophages using this method. […] Cells were plated at 0.8 × 10^6 cells per 3.8 cm^2 well [27].
BMDMs were then treated with different concentrations of the benzofuran and dihydrobenzofuran derivatives for 30 min prior to the addition of 10 ng/mL LPS for 24 h. […] The supernatants were assessed for IL-6, PGE2, CCL2, and nitrite, the stable derivative of NO, as described previously.
as §1

[5] = Toxicity on macrophages (BMDM), WST-1 assay; format: cell-based, C57BL/6J mice; settings: C57BL/6J, mouse, bone marrow-derived macrophages (BMDM), read-out: macrophage viability
Description: WST-1 assay (Sigma-Aldrich, 5015944001) was used to determine the toxicity of the synthesized compounds on BMDM and HCT116 (ATCC, CCL-247), kindly provided by Dr. Nadine Darwiche, Department of Biochemistry and Molecular Genetics, American University of Beirut, Lebanon. Briefly, macrophages (50,000 cells per well) and HCT116 (20,000 cells per well) were plated in a 96-well plate in RPMI 1640 culture medium containing 10% fetal bovine serum (FBS) and grown for 24 h. Cells (in triplicates) were treated with 10 or 50 μM of the compounds for macrophages, and 50 or 100 μM for HCT116. Culture medium without cells and cells without treatment were used as basal and maximal activity, respectively. Results were expressed as percentage of cells without treatment.
F i g u re S1: E ff e c t of fluorin at ed benzofuran derivatives on m acrophages
viabilit y. C ells in cub at ed with 10 and 50 μM of benzofuran d eri vativ es
(compounds 1 to 9) bel onging to groups І, II, III and IV for 24 hours. Cell
viabilit y w as det ermin ed by WST-1 assay. Non-t r eated m acrophages wer e used
as cont rol. Results were shown as mean ± SEM (n=3) . *p< 0.05 comp ar ed to the
vehicle –treated cells (basal), one-way ANOVA followed by Dunnett’s test.
(1 picture or pasted object on this page, not shown here)

O=C(O)/C=C1/Oc2ccccc2C1(F)F [Compound 4]
effect on IL-6 mRNA levels [1]: to a lesser extent
effect on LPS-induced COX-2 protein expression [2]: loss of this inhibitory effect

COC(=O)CC1(SCCO)Oc2ccc(Br)cc2C1(F)F (stereo not drawn) [Compound 7]
effect on COX-1 activity [3]: loss of the inhibitory activity
effect on PGE2 production in response to LPS [4]: loss of the inhibitory activity
viability at 24 h, 50 µM [5]: 50%

COC(=O)C1CC(C)=C(C)CC12Oc1ccc(Br)cc1C2(F)F (stereo not drawn) [Compound 9]
viability at 24 h, 50 µM [5]: 50%
